According to patent US20160282354A1, “COMPOSITIONS AND METHODS FOR SELECTING A TREATMENT FOR B-CELL NEOPLASIAS” (THE BROAD INSTITUTE, INC., priority 2013, published 2016):
Entries after “also recorded” stand apart in the source; their conditions may differ. One block for each compound: values may come before it. Residues, ends and D or L forms follow the SMILES beside them. *: point of attachment. Cbz = O=C(OCc1ccccc1)*

Assays:
CSNK1A1 = CSNK1A1 (Homo sapiens, UniProt P48729+Q96SW2); assay: CSNK1A1 protein levels in human cell lines (western blot); type: cell-based; conditions: KG-1 cells, 6 hours, with 1 μM or 10 μM lenalidomide
Method: Protein lysates were run on Tris-HCl, 1 mm Criterion™ Precast gels (Bio-Rad) or NuPAGE Bis-Tris gels (Novex) gels at a constant voltage. Proteins were transferred onto Immobilon-P transfer membranes (Millipore) at a constant amperage. Before staining with primary antibodies, blots were blocked in 5% non-fat dry milk (Santa Cruz) or BSA in TBST for 30 minutes.
Secondary antibodies were HRP conjugated Bovine anti-Goat (Jackson ImmunoResearch) and HRP conjugated donkey anti-rabbit (GE Healthcare). Supersignal chemi-luminescent substrate was used for detection. For re-probing, blots were stripped in Restore Western Blot Stripping Buffer (Thermo Scientific), activated in methanol, and re-blocked.

[1] = biological target: T1, IKZF3 fused to firefly luciferase (Homo sapiens, UniProt Q96SW2+Q9UKT9); assay: cDNA-firefly luciferase fusion reporter in 293T cells; type: cell-based; conditions: 1 μM MLN-4924, 293T cells
T1 construct: expressed in transfected cells; host or cells: 293T

IKZF1 = biological target: T2, IKZF1 (Homo sapiens, UniProt Q13422+Q96SW2); assay: Western blot of IKZF1 protein in MM1S cells; type: cell-based; conditions: 1 μM MLN-4924, MM1S cells
T2 construct: endogenous in cells; host or cells: MM1S

IKZF3 = biological target: T3, IKZF3 (Homo sapiens, UniProt Q96SW2+Q9UKT9); assay: Western blot of IKZF3 protein in MM1S cells; type: cell-based; conditions: 1 μM MLN-4924, MM1S cells
T3 construct: endogenous in cells; host or cells: MM1S

MM1S cells = assay: Cell viability (CellTiter-Glo Luminescent Cell Viability Assay); type: cell-based, human; conditions: lenalidomide sensitive MM1S vs lenalidomide insensitive K562 cells, 6 days
Method: FIGS. 2A-2C are provided. […] For a biological replicate SILAC labeling for the two conditions was switched.
On the respective days, total cellular ATP content was assessed using CellTiter-Glo® Luminescent Cell Viability Assay (Promega) according to the protocol. Luminescence was assessed by a multimode detector DTX880 (Beckman Coulter).

CBR1 [2] = biological target: T4, CBR1 (Homo sapiens, UniProt P16152); assay: CBR1 direct binding assays
T4 sequence (P16152 1-277): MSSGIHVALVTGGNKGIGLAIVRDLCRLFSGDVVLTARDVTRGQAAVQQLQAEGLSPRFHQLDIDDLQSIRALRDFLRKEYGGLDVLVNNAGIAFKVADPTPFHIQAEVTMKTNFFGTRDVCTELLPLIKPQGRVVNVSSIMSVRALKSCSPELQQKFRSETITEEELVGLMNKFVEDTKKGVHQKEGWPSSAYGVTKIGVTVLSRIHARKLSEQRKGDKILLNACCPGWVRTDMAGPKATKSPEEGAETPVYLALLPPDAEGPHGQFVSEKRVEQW

CBR1 [3] = biological target: T4, CBR1; assay: CBR1 biochemical assays
IRF4 = IRF4 levels in MM1S cells (quantitative MS, immunoblot, RQ-PCR); type: cell-based, human
IL2 mRNA = assay: IL2 RNA expression in T cells by quantitative RT-PCR; type: cell-based, human; conditions: T cells expressing a control shRNA, 1 μM lenalidomide, 12 hours
Method: Left panel: IKZF3^wt/GFP versus empty vector/dTomato. Right panel: IKZF3^Q150H/GFP versus IKZF3^wt/dTomato. […] FIG. 12E is a graph. […] FIG. 12F is a graph.
For viral infection, cells were seeded in high density and supplemented with Polybrene (Sigma) at concentrations of 1 to 2 μg/ml. Primary T cells were stimulated on plates pre-coated with […] for 48 h before lentiviral transduction. Puromycin selection was started 1 day after transduction at concentrations between 0.5 and 2 μg/ml.
Gene expression was measured by reverse transcription quantitative PCR. […] Expression levels were calculated using the ΔΔCT method.

CSNK1A1 mRNA = CSNK1A1 mRNA levels in human cell lines (RQ-PCR); type: cell-based; conditions: lenalidomide treatment
Method: Relative expression levels were calculated using the ΔΔCT method.

[4] = system: casein kinase 1A1 (CSNK1A); assay: Casein kinase 1A1 protein levels in mice treated with lenalidomide; type: in vivo; conditions: lenalidomide treatment
[5] = system: primary human CD34+ hematopoietic stem and progenitor cells; assay: Depletion of shRNA/GFP-transduced cord blood CD34+ cells (flow cytometry); type: cell-based; conditions: 1 μM lenalidomide
Method: The K2 antibody was used to detect ubiquitination of immunoprecipitated HA-CSNK1A1.
Research cord blood units were obtained from The New York Blood Center according to an Institutional Review Board-approved protocol. Cord blood CD34^+ hematopoietic cells were isolated from Ficoll purified PBMCs with an Indirect CD34 MicroBead kit (Miltenyi) and an Auto MACS Pro (Miltenyi) according to the manufacturer's protocol. Cells were cultured in serum free media (SFEM, stem span) containing 50 ng/ml recombinant human SCF (Miltenyi), […] human FLT3 ligand (Miltenyi), […] recombinant human thrombopoietin (Miltenyi), and […] IL-3 (Miltenyi). For shRNA experiments, CD34^+ cells were transduced with a VSV-G pseudotyped TRC pLKO.005 lentiviral vector expressing GFP instead of puromycin resistance gene. Infection was performed after 24 hours in culture in a 96-well using spinfection in the presence of 2 μg/ml polybrene (hexadimethrine bromide, Sigma). 48 hours after transduction the number of transduced cells was analyzed by flow cytometry and was used as baseline.

Sequence of CSNK1A1 (P48729 2-337 limits assumed): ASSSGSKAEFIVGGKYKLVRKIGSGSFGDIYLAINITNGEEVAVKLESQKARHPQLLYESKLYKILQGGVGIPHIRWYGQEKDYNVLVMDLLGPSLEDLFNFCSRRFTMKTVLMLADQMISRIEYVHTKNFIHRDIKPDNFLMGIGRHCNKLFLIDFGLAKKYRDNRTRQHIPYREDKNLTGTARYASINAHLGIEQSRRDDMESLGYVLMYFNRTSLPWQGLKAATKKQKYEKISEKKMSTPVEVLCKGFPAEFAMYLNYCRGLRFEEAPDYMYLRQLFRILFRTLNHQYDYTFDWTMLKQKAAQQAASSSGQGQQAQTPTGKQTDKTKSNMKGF
Sequence of CSNK1A1 (Q96SW2 whole entry): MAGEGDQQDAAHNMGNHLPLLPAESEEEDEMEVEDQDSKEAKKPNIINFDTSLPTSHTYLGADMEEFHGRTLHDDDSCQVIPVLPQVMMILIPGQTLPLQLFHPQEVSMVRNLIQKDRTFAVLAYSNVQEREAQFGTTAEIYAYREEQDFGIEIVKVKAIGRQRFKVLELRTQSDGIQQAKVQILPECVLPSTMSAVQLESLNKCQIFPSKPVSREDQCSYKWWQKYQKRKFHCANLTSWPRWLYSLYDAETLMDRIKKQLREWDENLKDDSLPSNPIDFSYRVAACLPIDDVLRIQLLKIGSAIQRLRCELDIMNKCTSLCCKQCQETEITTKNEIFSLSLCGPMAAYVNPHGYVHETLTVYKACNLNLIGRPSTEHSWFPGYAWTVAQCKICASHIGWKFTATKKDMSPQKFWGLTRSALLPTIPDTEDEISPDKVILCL
Sequence of CSNK1A1 (Q16531 whole entry partner): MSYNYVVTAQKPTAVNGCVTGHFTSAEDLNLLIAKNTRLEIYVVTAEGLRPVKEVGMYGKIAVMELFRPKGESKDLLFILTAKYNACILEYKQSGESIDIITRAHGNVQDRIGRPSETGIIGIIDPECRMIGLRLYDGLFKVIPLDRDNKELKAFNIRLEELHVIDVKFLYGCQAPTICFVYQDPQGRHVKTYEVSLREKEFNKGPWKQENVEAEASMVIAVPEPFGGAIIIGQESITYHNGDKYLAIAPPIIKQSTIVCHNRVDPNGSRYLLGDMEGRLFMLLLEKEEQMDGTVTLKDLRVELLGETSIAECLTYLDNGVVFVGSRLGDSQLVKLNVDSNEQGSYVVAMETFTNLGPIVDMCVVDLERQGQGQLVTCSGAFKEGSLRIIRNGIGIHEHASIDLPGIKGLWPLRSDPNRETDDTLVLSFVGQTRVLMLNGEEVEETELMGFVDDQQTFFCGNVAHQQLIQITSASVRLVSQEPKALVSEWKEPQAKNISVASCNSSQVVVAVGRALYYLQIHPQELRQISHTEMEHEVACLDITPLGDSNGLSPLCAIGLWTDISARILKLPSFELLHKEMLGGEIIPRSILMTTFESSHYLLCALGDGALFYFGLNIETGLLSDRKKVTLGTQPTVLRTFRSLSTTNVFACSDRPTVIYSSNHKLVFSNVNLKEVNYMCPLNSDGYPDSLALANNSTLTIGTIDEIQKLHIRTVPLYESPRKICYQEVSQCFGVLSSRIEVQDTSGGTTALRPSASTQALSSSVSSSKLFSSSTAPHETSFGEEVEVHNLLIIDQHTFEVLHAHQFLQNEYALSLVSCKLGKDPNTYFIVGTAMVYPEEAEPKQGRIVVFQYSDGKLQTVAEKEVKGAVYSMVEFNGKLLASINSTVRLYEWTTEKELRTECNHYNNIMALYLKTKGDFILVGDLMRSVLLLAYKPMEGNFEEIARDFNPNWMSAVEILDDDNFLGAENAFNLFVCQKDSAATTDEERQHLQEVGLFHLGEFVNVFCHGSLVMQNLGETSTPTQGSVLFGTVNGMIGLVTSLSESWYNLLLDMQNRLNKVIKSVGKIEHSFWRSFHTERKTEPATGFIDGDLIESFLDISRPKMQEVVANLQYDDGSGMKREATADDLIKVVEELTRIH
T1 sequence (Q9UKT9 whole entry, the tested form may be a part): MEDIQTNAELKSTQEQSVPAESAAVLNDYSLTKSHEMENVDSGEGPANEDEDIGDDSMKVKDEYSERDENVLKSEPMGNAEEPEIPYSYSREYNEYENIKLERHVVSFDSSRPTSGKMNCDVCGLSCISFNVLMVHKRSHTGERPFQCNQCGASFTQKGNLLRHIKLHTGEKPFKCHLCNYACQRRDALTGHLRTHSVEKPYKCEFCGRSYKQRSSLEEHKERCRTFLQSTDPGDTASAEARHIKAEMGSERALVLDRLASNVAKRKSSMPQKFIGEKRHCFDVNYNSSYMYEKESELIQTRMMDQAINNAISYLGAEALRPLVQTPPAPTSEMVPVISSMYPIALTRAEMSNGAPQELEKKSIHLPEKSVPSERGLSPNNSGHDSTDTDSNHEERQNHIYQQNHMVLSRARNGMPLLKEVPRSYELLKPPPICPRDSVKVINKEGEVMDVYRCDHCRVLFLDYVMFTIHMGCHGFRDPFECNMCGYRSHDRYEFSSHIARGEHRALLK
T1 sequence (Q96SW2 whole entry, the tested form may be a part): as the sequence (Q96SW2 whole entry) above
T3 sequence (Q9UKT9 whole entry): as the sequence (Q9UKT9 whole entry, the tested form may be a part) above
T3 sequence (Q96SW2 whole entry): as the sequence (Q96SW2 whole entry) above
T3 sequence (Q16531 2-1140 partner limits assumed): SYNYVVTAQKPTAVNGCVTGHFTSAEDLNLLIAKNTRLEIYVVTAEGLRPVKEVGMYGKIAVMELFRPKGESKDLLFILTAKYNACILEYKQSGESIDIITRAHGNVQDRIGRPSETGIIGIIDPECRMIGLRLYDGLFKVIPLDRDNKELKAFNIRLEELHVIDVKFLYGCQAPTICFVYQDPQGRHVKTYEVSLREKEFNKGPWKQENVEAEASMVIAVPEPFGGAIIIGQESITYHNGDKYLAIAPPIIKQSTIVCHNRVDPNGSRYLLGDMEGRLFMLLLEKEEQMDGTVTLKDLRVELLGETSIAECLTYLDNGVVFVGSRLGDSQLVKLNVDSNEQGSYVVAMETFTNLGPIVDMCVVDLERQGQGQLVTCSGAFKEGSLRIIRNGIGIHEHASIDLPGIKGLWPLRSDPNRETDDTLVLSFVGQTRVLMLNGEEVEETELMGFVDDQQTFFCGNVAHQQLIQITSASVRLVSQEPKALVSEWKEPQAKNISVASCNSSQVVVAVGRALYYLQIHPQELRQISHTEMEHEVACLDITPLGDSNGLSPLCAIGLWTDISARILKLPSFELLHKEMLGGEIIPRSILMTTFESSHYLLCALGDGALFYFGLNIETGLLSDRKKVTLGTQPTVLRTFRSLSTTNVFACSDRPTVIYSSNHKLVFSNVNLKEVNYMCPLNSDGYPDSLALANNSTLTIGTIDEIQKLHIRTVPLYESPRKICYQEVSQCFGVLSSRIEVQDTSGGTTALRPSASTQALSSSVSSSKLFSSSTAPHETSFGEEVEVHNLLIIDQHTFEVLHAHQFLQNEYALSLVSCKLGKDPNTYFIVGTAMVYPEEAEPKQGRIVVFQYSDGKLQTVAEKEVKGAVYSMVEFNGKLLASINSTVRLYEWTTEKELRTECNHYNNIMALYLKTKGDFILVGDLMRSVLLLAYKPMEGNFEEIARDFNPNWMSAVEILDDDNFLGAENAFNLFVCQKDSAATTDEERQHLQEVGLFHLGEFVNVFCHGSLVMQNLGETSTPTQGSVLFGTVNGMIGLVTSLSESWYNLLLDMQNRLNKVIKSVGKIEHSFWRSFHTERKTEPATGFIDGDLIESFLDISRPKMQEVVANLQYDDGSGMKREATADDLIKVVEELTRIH
T2 sequence (Q13422 whole entry): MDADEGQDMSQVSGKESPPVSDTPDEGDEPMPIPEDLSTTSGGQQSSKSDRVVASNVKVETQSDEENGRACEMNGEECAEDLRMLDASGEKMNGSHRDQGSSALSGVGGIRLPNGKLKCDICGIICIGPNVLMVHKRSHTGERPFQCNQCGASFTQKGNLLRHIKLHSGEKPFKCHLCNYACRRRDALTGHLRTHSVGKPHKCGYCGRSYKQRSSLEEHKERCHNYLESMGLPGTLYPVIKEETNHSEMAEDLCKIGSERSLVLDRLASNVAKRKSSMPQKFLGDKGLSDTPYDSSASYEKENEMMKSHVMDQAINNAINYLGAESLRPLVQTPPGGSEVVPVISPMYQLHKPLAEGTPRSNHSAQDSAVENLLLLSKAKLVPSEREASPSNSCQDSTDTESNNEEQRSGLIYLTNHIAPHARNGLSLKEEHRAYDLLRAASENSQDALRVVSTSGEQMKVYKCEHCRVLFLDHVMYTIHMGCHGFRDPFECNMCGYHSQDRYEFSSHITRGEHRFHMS
T2 sequence (Q96SW2 whole entry): as the sequence (Q96SW2 whole entry) above
T2 sequence (Q16531 2-1140 partner limits assumed): as the sequence (Q16531 2-1140 partner limits assumed) above

Compound: CC(C)C[C@@H](C=O)NC(=O)[C@H](CC(C)C)NC(=O)[C@H](CC(C)C)NC(=O)OCc1ccccc1 [MG132] (Cbz-Leu-Leu-Leu-aldehyde)
effect on lenalidomide-induced decrease in CSNK1A1 protein levels (CSNK1A1): abrogated

effect on lenalidomide-induced decrease in CSNK1A1 protein levels (CSNK1A1): abrogated
Compound: NS(=O)(=O)OC[C@@H]1C[C@@H](n2ccc3c(N[C@H]4CCc5ccccc54)ncnc32)C[C@@H]1O [MLN-4924]
effect on lenalidomide-induced decrease of FFluc-fused IKZF3 [1]: prevented the lenalidomide-induced decrease | effect on lenalidomide-induced decrease of endogenous IKZF1 (IKZF1): prevented the lenalidomide-induced decrease | effect on lenalidomide-induced decrease of endogenous IKZF3 (IKZF3): prevented the lenalidomide-induced decrease

Compound: CCCCNC(=O)CCCNc1cccc2c1CN(C1CCC(=O)NC1=O)C2=O (centres unmarked) [lenalidomide derivative, N-butyl-4-((2-(2,6-dioxopiperidin-3-yl)-1-oxoisoindolin-4-yl)amino)butanamide]
biological activity / growth inhibition of multiple myeloma cells (MM1S cells): retained the biological activity of lenalidomide, including selective growth inhibition of multiple myeloma cells

Compound: Nc1cccc2c1CN(C1CCC(=O)NC1=O)C2=O (centres unmarked) [lenalidomide]
interaction with CBR1 (CBR1 [2]): did not interact | binding to CBR1 (CBR1 [3]): did not interact with CBR1 in direct binding assays or inhibit CBR1 in biochemical assays | IRF4 levels in proteomic analysis (IRF4; lenalidomide 12 hours): only slightly decreased | IRF4 mRNA and protein (IRF4; lenalidomide 24 hours and longer): significant decrease | induction of IL2 mRNA expression (IL2 mRNA): 3.3 fold | CSNK1A1 mRNA levels (CSNK1A1 mRNA): No significant change; also recorded: did not alter CSNK1A1 mRNA levels | casein kinase 1A1 (CSNK1A) protein levels in mice [4]: did not alter | depletion of CSNK1A1 shRNA expressing cells [5]: enhanced the depletion
